Experimental data reported in ChEMBL document CHEMBL5260810, “Inhibition of bromodomain-containing protein 9 for the prevention of epigenetically-defined drug resistance” (Bioorg Med Chem Lett, 2017).

Tests used:
[1] = molecular target: Bromodomain and WD repeat-containing protein 1 (Homo sapiens, UniProt Q9NSI6); experiment: Binding affinity to human partial length WDR9 bromodomain 2 (A1310 to E1430 residues) expressed in bacterial expression system by BROMOscan assay
[2] = molecular target: T1, Bromodomain-containing protein 7 (Homo sapiens, UniProt Q9NPI1); experiment: Binding affinity to human partial length BRD7 (L125 to R254 residues) expressed in mammalian expression system by BROMOscan assay
T1 sequence (Q9NPI1 whole entry): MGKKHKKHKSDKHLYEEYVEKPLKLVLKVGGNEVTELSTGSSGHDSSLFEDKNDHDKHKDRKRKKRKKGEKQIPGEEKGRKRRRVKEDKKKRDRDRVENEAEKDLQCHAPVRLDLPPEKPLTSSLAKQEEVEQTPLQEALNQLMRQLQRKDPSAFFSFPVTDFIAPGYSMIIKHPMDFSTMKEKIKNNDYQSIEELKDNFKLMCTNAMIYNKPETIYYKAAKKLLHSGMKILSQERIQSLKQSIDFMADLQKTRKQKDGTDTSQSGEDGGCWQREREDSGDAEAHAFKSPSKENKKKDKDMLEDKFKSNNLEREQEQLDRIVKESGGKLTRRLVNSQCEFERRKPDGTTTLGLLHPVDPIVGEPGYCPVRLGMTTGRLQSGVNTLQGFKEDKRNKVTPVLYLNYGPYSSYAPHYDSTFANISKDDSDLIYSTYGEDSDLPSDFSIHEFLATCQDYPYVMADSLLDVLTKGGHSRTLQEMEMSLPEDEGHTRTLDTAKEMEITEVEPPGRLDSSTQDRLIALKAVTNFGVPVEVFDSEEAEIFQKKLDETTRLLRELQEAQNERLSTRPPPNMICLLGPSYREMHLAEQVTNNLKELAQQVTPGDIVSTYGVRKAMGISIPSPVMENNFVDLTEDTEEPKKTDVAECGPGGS

GA-10 = experiment: Cytotoxicity against human GA-10 cells measured after 8 days; assay type: functional, cell-based; conditions: GA-10, 192 h
[3] = molecular target: Histone acetyltransferase p300 (Homo sapiens, UniProt Q09472); experiment: Binding affinity to human partial length EP300 (A1040 to G1161 residues) expressed in bacterial expression system by BROMOscan assay
Histone acetyltransferase p300, sequence (Q09472 whole entry, the tested form may be a part): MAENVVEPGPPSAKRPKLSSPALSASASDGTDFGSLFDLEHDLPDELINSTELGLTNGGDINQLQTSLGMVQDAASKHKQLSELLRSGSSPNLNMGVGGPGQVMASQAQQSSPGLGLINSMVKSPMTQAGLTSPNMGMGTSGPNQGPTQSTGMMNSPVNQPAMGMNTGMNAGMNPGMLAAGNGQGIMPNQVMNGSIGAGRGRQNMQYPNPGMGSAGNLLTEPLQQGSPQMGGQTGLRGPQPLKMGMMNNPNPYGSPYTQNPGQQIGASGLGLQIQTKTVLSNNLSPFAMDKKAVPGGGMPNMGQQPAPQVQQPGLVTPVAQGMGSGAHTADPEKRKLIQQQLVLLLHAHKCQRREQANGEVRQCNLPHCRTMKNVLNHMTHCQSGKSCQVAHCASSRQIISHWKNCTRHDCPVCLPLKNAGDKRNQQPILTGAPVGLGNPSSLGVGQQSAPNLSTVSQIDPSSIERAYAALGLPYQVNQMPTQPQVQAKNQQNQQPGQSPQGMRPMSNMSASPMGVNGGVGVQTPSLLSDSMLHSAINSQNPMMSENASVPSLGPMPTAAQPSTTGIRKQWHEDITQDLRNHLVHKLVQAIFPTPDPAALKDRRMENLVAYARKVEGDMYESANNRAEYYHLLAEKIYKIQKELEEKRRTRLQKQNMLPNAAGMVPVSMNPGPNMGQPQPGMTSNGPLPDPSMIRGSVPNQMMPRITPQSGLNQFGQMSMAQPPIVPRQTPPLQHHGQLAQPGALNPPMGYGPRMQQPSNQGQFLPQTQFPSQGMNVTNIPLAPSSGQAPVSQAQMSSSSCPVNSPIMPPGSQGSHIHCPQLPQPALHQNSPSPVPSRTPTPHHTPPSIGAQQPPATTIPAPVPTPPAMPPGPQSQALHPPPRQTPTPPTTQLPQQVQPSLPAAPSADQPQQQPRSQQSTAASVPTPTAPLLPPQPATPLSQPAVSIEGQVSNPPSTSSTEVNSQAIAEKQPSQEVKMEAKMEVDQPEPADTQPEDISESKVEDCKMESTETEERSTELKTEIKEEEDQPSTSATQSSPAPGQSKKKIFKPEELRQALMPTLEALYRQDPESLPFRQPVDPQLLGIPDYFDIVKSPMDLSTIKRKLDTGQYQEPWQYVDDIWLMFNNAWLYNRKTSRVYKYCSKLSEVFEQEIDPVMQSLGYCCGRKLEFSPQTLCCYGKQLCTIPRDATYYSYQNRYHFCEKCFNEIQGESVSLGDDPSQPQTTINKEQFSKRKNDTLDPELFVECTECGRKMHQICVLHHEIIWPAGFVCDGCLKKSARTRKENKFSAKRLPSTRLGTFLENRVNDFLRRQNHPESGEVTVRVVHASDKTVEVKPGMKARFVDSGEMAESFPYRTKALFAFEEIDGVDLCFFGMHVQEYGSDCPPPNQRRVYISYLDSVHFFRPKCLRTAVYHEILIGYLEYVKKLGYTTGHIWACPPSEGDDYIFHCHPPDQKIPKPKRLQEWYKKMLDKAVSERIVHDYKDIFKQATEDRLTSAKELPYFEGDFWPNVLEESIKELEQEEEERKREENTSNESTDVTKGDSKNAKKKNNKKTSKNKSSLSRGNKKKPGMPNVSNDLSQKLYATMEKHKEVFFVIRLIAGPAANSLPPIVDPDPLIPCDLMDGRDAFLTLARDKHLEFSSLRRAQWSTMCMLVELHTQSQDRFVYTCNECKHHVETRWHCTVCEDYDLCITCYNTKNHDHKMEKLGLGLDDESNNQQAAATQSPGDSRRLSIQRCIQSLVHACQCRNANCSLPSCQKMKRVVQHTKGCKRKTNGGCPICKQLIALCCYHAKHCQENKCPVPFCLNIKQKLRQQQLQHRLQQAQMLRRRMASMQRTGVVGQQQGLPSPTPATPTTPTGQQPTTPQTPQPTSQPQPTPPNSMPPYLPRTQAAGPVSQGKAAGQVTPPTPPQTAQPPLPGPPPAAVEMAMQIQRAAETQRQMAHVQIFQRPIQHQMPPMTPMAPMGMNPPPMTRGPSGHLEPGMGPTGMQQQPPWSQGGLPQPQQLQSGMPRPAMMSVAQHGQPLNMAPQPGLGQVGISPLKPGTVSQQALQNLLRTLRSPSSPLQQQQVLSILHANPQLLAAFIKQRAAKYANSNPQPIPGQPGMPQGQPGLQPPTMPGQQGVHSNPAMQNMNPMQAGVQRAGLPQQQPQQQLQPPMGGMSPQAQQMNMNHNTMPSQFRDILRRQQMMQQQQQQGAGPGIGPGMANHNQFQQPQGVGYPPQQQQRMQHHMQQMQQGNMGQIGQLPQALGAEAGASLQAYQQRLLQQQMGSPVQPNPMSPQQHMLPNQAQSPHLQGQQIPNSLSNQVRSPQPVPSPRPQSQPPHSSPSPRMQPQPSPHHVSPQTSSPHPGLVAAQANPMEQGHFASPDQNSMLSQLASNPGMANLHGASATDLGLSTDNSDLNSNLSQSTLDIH

MDA-MB-157 = experiment: Cytotoxicity against human MDA-MB-157 cells measured after 8 days; assay type: functional, cell-based; conditions: MDA-MB-157, 192 h
[4] = molecular target: Mu-type opioid receptor (Homo sapiens) (UniProt P35372); experiment: Displacement of [3H]DAMGO from human recombinant mu receptor at 10 uM after 120 mins by scintillation counting analysis relative to control
Mu-type opioid receptor (Homo sapiens), sequence (P35372 whole entry): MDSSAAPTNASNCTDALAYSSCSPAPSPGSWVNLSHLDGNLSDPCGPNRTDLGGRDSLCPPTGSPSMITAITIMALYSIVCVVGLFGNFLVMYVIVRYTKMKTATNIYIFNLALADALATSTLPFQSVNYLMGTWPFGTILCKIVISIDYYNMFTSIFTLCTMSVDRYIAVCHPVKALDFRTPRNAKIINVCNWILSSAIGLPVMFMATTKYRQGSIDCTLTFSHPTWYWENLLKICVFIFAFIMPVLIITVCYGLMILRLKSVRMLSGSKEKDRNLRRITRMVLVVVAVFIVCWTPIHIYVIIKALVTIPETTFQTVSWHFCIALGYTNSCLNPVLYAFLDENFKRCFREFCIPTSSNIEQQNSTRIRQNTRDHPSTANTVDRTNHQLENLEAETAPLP

HEL = experiment: Cytotoxicity against human HEL cells measured after 8 days; assay type: functional, cell-based; conditions: 192 h
Caco-2 = experiment: Cytotoxicity against human Caco-2 cells measured after 8 days; assay type: functional, cell-based; conditions: Caco-2, 192 h
NCI-H1651 = experiment: Cytotoxicity against human NCI-H1651 cells measured after 8 days; assay type: functional, cell-based; conditions: NCI-H1651, 192 h
[5] = Cytotoxicity against human NCI-H1869 cells measured after 8 days; assay type: functional, cell-based; conditions: NCI-H1869, 192 h
ABC-1 = experiment: Cytotoxicity against human ABC-1 cells measured after 8 days; assay type: functional, cell-based; conditions: ABC-1, 192 h
PA-1 = experiment: Cytotoxicity against human PA-1 cells measured after 8 days; assay type: functional, cell-based; conditions: PA-1, 192 h
MDA-MB-231 = experiment: Cytotoxicity against human MDA-MB-231 cells measured after 8 days; assay type: functional, cell-based; conditions: MDA-MB-231, 192 h
[6] = molecular target: Receptor-interacting serine/threonine-protein kinase 2 (Homo sapiens) (UniProt O43353); experiment: Inhibition of RIPK2 (unknown origin) at 1 uM relative to control
Receptor-interacting serine/threonine-protein kinase 2 (Homo sapiens), sequence (O43353 whole entry): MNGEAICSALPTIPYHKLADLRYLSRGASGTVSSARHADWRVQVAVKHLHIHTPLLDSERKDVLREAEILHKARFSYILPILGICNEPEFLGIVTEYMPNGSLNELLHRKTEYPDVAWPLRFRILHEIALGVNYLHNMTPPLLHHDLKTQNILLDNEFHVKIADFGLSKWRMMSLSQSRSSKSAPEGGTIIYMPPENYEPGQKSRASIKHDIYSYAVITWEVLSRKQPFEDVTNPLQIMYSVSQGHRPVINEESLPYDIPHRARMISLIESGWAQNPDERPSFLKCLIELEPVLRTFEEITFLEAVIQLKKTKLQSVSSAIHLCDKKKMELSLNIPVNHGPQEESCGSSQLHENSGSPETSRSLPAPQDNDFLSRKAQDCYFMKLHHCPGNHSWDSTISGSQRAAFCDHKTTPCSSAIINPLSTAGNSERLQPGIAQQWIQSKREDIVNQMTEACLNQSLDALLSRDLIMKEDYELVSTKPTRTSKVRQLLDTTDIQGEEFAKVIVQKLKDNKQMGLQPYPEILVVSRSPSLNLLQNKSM

ChaGo-K-1 = experiment: Cytotoxicity against human ChaGo-K-1 cells measured after 8 days; assay type: functional, cell-based; conditions: ChaGo-K-1, 192 h
A549 = experiment: Cytotoxicity against human A549 cells measured after 8 days; assay type: functional, cell-based; conditions: A549, 192 h
[7] = molecular target: T2, ATPase family AAA domain-containing protein 2 (Homo sapiens, UniProt Q6PL18); experiment: Binding affinity to human partial length ATAD2A (Q981 to R1108 residues) expressed in bacterial expression system by BROMOscan assay
T2 sequence (Q6PL18 whole entry): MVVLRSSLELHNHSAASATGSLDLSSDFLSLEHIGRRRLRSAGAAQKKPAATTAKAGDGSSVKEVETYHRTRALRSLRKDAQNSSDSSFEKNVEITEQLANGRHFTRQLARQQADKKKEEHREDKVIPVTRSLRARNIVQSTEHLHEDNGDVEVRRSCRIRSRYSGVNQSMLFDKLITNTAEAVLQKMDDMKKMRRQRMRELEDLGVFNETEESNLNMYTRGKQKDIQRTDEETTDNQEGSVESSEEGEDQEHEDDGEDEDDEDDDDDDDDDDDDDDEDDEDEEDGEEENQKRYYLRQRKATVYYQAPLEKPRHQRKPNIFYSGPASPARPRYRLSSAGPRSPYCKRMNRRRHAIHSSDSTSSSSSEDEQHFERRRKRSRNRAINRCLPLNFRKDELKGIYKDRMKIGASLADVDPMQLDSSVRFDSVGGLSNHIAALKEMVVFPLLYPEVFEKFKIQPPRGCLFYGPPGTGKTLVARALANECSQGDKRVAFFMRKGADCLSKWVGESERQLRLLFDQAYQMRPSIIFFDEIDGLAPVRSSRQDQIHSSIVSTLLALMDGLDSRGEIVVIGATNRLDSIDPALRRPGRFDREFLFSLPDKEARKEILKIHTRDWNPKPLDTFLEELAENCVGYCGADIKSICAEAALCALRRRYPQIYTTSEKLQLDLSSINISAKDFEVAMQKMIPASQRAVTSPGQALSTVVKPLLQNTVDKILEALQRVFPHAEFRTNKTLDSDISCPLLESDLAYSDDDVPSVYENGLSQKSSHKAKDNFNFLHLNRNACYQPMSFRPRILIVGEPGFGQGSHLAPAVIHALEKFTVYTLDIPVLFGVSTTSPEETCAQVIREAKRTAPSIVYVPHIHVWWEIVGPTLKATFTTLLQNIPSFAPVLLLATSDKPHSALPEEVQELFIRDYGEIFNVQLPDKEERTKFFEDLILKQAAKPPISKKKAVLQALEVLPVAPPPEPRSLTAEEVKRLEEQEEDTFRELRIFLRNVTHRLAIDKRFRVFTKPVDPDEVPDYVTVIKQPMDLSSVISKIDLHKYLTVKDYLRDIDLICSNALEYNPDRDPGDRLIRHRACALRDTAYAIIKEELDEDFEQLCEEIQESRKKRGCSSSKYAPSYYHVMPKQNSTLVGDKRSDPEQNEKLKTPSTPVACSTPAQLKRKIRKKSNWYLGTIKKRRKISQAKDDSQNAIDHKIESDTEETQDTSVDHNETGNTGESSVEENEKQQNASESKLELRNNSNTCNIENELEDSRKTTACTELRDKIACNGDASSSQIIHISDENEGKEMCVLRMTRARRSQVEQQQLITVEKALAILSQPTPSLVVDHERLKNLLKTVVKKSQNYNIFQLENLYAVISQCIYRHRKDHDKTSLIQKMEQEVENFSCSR

Question: For `C/C=C/Cn1cc(-c2ccc(C(C)(C)O)cc2OC)c2cc[nH]c2c1=O`, which Kd [1] is on record?
Answer: The Kd was over 10 µM.

Question: And the Kd [2]?
Answer: The Kd was 340 nM.

Question: And the IC50 (GA-10)?
Answer: Its IC50 is 20 µM.

Question: And the Kd [3]?
Answer: Its Kd is 4.5 µM.

Question: And the IC50 (MDA-MB-157)?
Answer: The IC50 was 20 µM.

Question: And the Activity [4]?
Answer: Its Activity is 10%.

Question: And the IC50 (HEL)?
Answer: Its IC50 is 14.8 µM.

Question: What about the IC50 (Caco-2) of the same compound?
Answer: The IC50 was 20 µM.

Question: What about the IC50 (NCI-H1651) of the same compound?
Answer: The IC50 was 20 µM.

Question: And the IC50 [5]?
Answer: Its IC50 is 20 µM.

Question: What about the IC50 (ABC-1) of the same compound?
Answer: The IC50 was 20 µM.

Question: What about the IC50 (PA-1) of the same compound?
Answer: Its IC50 is 16.4 µM.

Question: What about the IC50 (MDA-MB-231) of the same compound?
Answer: The IC50 was 20 µM.

Question: And the inhibition [6]?
Answer: The inhibition was -0.5%.

Question: What about the IC50 (ChaGo-K-1) of the same compound?
Answer: The IC50 was 20 µM.

Question: What about the IC50 (A549) of the same compound?
Answer: The IC50 was 20 µM.

Question: And the Kd [7]?
Answer: The Kd was over 10 µM.

Question: For `C/C=C/Cn1cc(-c2cc(OC)c(C(C)(C)O)cc2OC)c2cc(C)[nH]c2c1=O`, which Kd [1] is on record?
Answer: The Kd was over 10 µM.

Question: What about the Kd [2] of the same compound?
Answer: The Kd was 520 nM.

Question: What about the Kd [3] of the same compound?
Answer: Its Kd is over 10 µM.

Question: And the Kd [7]?
Answer: The Kd was 9.3 µM.

Question: For `C/C=C/Cn1cc(-c2ccc(C(=O)N3CCOCC3)cc2)c2cc[nH]c2c1=O`, which Kd [1] is on record?
Answer: Its Kd is 27 µM.

Question: What about the Kd [2] of the same compound?
Answer: Its Kd is 200 nM.

Question: And the IC50 (GA-10)?
Answer: Its IC50 is 10.8 µM.

Question: What about the Kd [3] of the same compound?
Answer: Its Kd is over 10 µM.

Question: What about the IC50 (MDA-MB-157) of the same compound?
Answer: The IC50 was 20 µM.

Question: And the Activity [4]?
Answer: Its Activity is 5%.

Question: What about the IC50 (HEL) of the same compound?
Answer: The IC50 was 18 µM.

Question: And the IC50 (Caco-2)?
Answer: Its IC50 is 20 µM.

Question: And the IC50 (NCI-H1651)?
Answer: Its IC50 is 20 µM.

Question: What about the IC50 [5] of the same compound?
Answer: Its IC50 is 20 µM.

Question: What about the IC50 (ABC-1) of the same compound?
Answer: The IC50 was 20 µM.

Question: And the IC50 (PA-1)?
Answer: Its IC50 is 20 µM.

Question: What about the IC50 (MDA-MB-231) of the same compound?
Answer: Its IC50 is 20 µM.

Question: What about the inhibition [6] of the same compound?
Answer: Its inhibition is -4.6%.

Question: What about the IC50 (ChaGo-K-1) of the same compound?
Answer: The IC50 was 20 µM.

Question: And the IC50 (A549)?
Answer: The IC50 was 20 µM.

Question: What about the Kd [7] of the same compound?
Answer: Its Kd is over 10 µM.

Question: What does the source list for `C/C=C/Cn1cc(-c2cc(OC)c(C(=O)N3CCOCC3)cc2OC)c2cc(C)[nH]c2c1=O`?
Answer: Kd [1]: > 5 µM; Kd [2]: 110 nM; IC50 (GA-10): 2 µM; Kd [3]: > 10 µM; IC50 (MDA-MB-157): 2 µM; Activity [4]: 9%; IC50 (HEL): 2 µM; IC50 (Caco-2): 2 µM; IC50 (NCI-H1651): 2 µM; IC50 [5]: 2 µM; IC50 (ABC-1): 2 µM; IC50 (PA-1): 2 µM; IC50 (MDA-MB-231): 2 µM; inhibition [6]: -1.5%; IC50 (ChaGo-K-1): 2 µM; IC50 (A549): 2 µM; Kd [7]: > 10 µM
